Experiment [1] addresses E. coli RNA polymerase σ^70 holoenzyme (Escherichia coli, UniProt P0A8T7+P0A8V2). Kind of experiment: Fluorescence-detected RNA polymerase assay, E. coli RNA polymerase. The following applies: read-out: IC50 E. coli RNAP. It is filed as biochemical.
Experiment [2] deals with Staphylococcus aureus ATCC 12600. The experiment can be described thus: MIC, spiral gradient endpoint assay, S. aureus ATCC 12600. The following applies: ATCC12600. It counts as cell-based.
The test system of experiment [3] is methicillin-resistant Staphylococcus aureus (MRSA) strain BAA-1707 (USA-400; MW2). The experiment can be described thus: MIC, spiral gradient endpoint assay, MRSA BAA-1707. It is filed as cell-based.
The test system of experiment [4] is methicillin-resistant Staphylococcus aureus (MRSA) strain BAA-1717 (USA-300). Kind of experiment: MIC, spiral gradient endpoint assay, MRSA BAA-1717. It is filed as cell-based.
Experiment [5] concerns rifampin-resistant Staphylococcus aureus (RRSA) strain ATCC 12600-Rif (H526N). The experiment can be described thus: MIC, spiral gradient endpoint assay, RRSA 12600-Rif. It counts as cell-based.
Experiment [6] deals with linezolid-resistant Staphylococcus aureus (LRSA) strain NRS 120. The experiment can be described thus: MIC, spiral gradient endpoint assay, LRSA NRS 120. It counts as cell-based.
Experiment [7] concerns vancomycin-intermediate Staphylococcus aureus (VISA) strain NRS 1. The experiment can be described thus: MIC, spiral gradient endpoint assay, VISA NRS 1. It counts as cell-based.
The test system of experiment [8] is Acinetobacter baumannii ATCC 19606. Kind of experiment: MIC, spiral gradient endpoint assay, A. baumannii. It is filed as cell-based.
The test system of experiment [9] is Escherichia coli D21f2tolC. The experiment can be described thus: MIC, spiral gradient endpoint assay, E. coli D21f2tolC. It counts as cell-based.
In experiment [10] the test system is Mycobacterium tuberculosis H37Rv. The experiment can be described thus: MIC, microplate Alamar Blue assay, M. tuberculosis. It is filed as cell-based. (Resazurin is reduced to fluorescent resorufin, in cell work by metabolically active cells.)
The test system of experiment [11] is Bacillus anthracis Vollum 1b. Kind of experiment: microbe, parasite or virus in culture. It counts as cell-based.
The test system of experiment [12] is Francisella tularensis SCHU4. Kind of experiment: microbe, parasite or virus in culture. It is filed as cell-based.
The test system of experiment [13] is Burkholderia mallei CHN7. The experiment can be described thus: microbe, parasite or virus in culture. It is filed as cell-based.
The subject of experiment [14] is Burkholderia pseudomallei Human/Blood/OH/US/1994. Kind of experiment: microbe, parasite or virus in culture. It counts as cell-based.
For experiment [15], the system named is Brucella melitensis 16M. Kind of experiment: microbe, parasite or virus in culture. It is filed as cell-based.
Experiment [16] has as its system methicillin-resistant Staphylococcus aureus (MRSA) strain BAA-1707 (USA-400, MW2). Kind of experiment: Antibacterial efficacy in mouse model of Staphylococcus aureus systemic infection (peritonitis model). Conditions: mice. It is filed as in vivo, Swiss Webster mice.
Experiment [17] deals with S. aureus RNA polymerase core enzyme, S. aureus σ^A (Staphylococcus aureus, UniProt P47768+Q2G0N5). The experiment can be described thus: Fluorescence-detected RNA polymerase assay, S. aureus RNA polymerase. Conditions: read-out: IC50 S. aureus RNAP. It is filed as biochemical.
Experiment [18] has as its target M. tuberculosis RNA polymerase core enzyme, M. tuberculosis σ^A (Mycobacterium tuberculosis, UniProt P9WGY7+P9WGY9). Kind of experiment: Fluorescence-detected RNA polymerase assay, M. tuberculosis RNA polymerase. It counts as biochemical. Conditions: read-out: IC50 M. tuberculosis RNAP.
For experiment [19], the system named is Yersinia pestis C092. Kind of experiment: microbe, parasite or virus in culture. It is filed as cell-based.
[20] abbreviates: intravenous administration 0 h post-infection.

The values that follow come from US9592221B2, “Antibacterial agents: aryl myxopyronin derivatives” (priority 2012, dated 2017).

Molecules are shown by their SMILES. ≈ marks a conversion by molar mass, not a printed value.

E. coli RNA polymerase σ^70 holoenzyme, sequence (P0A8T7 whole entry): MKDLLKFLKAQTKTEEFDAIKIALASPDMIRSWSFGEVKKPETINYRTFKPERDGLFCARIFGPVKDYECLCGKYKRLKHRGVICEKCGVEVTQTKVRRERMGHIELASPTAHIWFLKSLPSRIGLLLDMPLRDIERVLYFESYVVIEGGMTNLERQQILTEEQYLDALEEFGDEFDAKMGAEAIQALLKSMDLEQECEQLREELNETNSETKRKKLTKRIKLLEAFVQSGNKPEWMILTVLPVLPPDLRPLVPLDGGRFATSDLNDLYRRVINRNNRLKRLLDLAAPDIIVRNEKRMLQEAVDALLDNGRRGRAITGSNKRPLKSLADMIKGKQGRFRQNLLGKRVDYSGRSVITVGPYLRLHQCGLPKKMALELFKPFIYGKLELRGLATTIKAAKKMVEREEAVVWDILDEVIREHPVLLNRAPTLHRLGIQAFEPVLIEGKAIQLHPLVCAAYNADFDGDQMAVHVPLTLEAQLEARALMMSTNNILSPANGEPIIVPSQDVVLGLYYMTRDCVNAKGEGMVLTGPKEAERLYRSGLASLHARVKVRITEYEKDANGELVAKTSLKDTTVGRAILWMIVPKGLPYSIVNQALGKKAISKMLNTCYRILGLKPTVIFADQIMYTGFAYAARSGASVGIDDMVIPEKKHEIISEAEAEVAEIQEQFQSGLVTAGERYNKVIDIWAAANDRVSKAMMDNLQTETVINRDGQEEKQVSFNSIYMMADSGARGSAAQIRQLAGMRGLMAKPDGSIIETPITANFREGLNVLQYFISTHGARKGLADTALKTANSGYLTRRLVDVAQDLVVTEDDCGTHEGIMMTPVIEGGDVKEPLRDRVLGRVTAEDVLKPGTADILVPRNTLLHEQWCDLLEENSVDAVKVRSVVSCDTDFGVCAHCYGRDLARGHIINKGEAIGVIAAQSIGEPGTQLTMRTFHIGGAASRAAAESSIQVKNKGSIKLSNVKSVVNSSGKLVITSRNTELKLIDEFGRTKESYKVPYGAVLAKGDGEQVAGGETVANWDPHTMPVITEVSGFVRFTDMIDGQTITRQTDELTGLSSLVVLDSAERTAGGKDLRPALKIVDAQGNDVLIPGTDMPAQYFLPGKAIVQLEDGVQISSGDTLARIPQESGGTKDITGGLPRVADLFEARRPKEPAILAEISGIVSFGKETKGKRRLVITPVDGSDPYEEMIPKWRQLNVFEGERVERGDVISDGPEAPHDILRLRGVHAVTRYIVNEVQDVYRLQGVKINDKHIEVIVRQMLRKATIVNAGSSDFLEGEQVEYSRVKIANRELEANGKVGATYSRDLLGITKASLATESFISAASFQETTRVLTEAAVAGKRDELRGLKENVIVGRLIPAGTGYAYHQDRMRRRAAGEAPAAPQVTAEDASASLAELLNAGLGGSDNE
E. coli RNA polymerase σ^70 holoenzyme, sequence (P0A800 whole entry, further chain): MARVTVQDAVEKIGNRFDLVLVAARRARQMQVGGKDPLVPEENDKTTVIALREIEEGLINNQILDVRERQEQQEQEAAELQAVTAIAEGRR
E. coli RNA polymerase σ^70 holoenzyme, sequence (P0A8V2 whole entry): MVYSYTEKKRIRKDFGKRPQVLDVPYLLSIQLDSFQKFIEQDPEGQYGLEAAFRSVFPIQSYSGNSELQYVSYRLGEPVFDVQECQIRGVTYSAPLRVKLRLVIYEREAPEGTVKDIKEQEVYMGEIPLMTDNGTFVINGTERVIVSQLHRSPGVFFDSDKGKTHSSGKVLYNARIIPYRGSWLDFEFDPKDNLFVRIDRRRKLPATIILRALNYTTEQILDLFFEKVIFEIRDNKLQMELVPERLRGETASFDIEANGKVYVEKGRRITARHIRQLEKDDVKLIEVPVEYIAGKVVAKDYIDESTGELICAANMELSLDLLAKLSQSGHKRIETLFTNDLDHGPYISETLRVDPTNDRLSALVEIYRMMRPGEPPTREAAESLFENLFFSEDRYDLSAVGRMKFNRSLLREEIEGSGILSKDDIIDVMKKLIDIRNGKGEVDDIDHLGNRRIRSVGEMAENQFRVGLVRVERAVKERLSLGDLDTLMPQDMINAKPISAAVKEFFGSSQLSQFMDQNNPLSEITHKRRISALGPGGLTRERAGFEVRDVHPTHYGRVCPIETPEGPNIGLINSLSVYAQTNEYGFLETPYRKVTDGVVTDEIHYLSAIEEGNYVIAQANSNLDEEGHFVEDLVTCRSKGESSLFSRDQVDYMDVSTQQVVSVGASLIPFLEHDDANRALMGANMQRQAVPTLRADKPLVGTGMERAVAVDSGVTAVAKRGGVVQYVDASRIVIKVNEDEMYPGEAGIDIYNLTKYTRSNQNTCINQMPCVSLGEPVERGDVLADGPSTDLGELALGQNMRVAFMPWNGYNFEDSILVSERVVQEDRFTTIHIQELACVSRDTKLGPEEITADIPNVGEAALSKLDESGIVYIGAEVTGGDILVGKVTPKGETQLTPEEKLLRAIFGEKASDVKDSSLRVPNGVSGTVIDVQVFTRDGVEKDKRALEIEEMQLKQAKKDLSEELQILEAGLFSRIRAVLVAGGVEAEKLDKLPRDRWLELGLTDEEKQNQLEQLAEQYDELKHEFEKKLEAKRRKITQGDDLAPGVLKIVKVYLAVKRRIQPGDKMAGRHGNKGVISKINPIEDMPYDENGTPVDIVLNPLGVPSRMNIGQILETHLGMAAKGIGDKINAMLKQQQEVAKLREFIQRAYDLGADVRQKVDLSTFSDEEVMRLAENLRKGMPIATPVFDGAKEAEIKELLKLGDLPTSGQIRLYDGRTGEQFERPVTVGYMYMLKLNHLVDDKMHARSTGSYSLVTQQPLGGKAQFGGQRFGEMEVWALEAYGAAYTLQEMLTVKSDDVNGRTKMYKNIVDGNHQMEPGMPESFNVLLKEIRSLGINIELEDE
E. coli RNA polymerase σ^70 holoenzyme, sequence (P00579 whole entry, further chain): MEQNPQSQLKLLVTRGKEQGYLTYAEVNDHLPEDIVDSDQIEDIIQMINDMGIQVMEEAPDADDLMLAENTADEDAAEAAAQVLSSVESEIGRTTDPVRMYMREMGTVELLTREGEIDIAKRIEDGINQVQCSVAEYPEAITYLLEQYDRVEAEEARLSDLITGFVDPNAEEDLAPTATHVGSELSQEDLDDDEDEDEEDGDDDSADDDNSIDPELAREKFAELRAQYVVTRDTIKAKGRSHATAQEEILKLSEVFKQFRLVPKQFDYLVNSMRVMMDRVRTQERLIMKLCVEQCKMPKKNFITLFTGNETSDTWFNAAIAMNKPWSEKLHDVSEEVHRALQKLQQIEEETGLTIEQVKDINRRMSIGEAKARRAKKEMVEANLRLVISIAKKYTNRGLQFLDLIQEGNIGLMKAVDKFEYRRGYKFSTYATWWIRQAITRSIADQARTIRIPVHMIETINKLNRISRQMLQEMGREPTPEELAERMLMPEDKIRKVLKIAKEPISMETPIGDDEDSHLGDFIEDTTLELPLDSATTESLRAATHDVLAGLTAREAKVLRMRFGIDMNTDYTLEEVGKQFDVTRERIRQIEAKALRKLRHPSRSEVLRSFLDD
E. coli RNA polymerase σ^70 holoenzyme, sequence (P0A7Z4 whole entry, further chain): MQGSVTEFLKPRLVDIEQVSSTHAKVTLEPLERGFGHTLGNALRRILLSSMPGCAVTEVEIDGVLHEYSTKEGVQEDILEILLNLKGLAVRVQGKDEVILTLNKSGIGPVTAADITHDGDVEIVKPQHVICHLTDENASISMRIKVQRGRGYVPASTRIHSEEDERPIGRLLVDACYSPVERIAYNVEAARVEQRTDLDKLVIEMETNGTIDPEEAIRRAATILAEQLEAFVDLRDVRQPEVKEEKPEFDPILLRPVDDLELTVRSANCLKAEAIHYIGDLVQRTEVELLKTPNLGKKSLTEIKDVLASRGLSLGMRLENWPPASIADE

On to `COC(=O)N/C=C/CCC(C)c1cc(O)c(C(=O)C(C)=Cc2ccc(CCC(F)(F)F)s2)c(=O)o1` (mixture of isomers) [APY61, methyl (E)-5-(5-((E/Z)-3-(5-(3,3,3-trifluoropropyl)thiophen-2-yl)-2-methylacryloyl)-4-hydroxy-6-oxo-6H-pyran-2-yl)hex-1-enylcarbamate], for which the IC50 (commonly the concentration at which inhibition is half-maximal) in experiment [1] is 20 nM. For the same molecule, the MIC in [2] (Staphylococcus aureus ATCC 12600) was determined as 0.7 µg/mL; in experiment [3] (Staphylococcus aureus, read-out: MIC S. aureus MRSA BAA-1707), 0.9 µg/mL; in experiment [4] (Staphylococcus aureus, read-out: MIC S. aureus MRSA BAA-1717) it was 0.9 µg/mL; in experiment [5] (Staphylococcus aureus, ATCC12600, read-out: MIC S. aureus RRSA 12600-Rif) it was 1 µg/mL; in [6] (Staphylococcus aureus, NRS120, read-out: MIC S. aureus LRSA NRS120), 0.4 µg/mL; in [7] (Staphylococcus aureus, read-out: MIC S. aureus VISA NRS1) it was 0.4 µg/mL. Also, the MIC in [8] (ATCC19606, Acinetobacter baumannii ATCC 19606) amounted to 10 µg/mL; in experiment [9] (Escherichia coli, D21F2TOLC, read-out: MIC E. coli D21f2toIC), 0.2 µg/mL; in experiment [10], 10 µg/mL; in [11] (Bacillus anthracis, VOLLUM1B, read-out: MIC B. anthracis Vollum-1b) it was 6 µg/mL; in experiment [12] (Francisella tularensis, SCHU4, read-out: MIC F. tularensis SCHU4), 30 µg/mL; in [13] (Burkholderia mallei, CHN7, read-out: MIC B. mallei CHN7), 30 µg/mL. The MIC in experiment [14] (Burkholderia pseudomallei, read-out: MIC B. pseudomallei Human/Blood/OH) was 30 µg/mL; in experiment [15] (Brucella melitensis, 16M, read-out: MIC B. melitensis 16M), more than 50 µg/mL. Also, in [16] (setting [20]), the PD50 was found to be 20 mg/kg.

Turning to `CCCC/C(C)=C/C=C(\C)C(=O)c1c(O)cc([C@H](C)CC/C=C/NC(=O)OC)oc1=O` [Myx B, myxopyronin B, reference compound], the values for the IC50 in experiment [1], in [17] and in [18] were 10 nM, 70 nM and 100 nM, respectively. In experiment [2] (Staphylococcus aureus), the “MIC S. aureus 12600” value turned out to be 0.8 µg/mL (≈ 1.85 µM). The “MIC S. aureus MRSA BAA-1707” value in experiment [3] came to 0.9 µg/mL (≈ 2.09 µM). Moreover, the “MIC S. aureus MRSA BAA-1717” value in experiment [4] came out at 0.8 µg/mL (≈ 1.85 µM). Also, the “MIC S. aureus RRSA 12600-Rif” value in [5] turned out to be 1 µg/mL (≈ 2.32 µM). Further, the “MIC S. aureus LRSA NRS120” value in experiment [6] stood at 0.5 µg/mL (≈ 1.16 µM). Moreover, in experiment [7], the “MIC S. aureus VISA NRS1” value is 0.5 µg/mL (≈ 1.16 µM). In addition, the “inhibition of Acinetobacter baumannii (in words)” value in experiment [8] was “does not inhibit”. For the same molecule, the “MIC A. baumannii 19606” value in [8] (Acinetobacter baumannii ATCC 19606) was more than 40 µg/mL. Also, the “MIC E. coli D21f2toIC” value in experiment [9] (Escherichia coli D21f2tolC) stood at 0.1 µg/mL (≈ 0.232 µM). In addition, in [10], the “MIC M. tuberculosis H37Rv” value turned out to be 2 µg/mL (≈ 4.63 µM). The “MIC B. anthracis Vollum-1b” value in experiment [11] amounted to 6 µg/mL (≈ 13.9 µM). Further, in [12], the “MIC F. tularensis SCHU4” value is 2 µg/mL (≈ 4.63 µM). Also, the “MIC Y. pestis C092” value in [19] stood at 50 µg/mL (≈ 116 µM). The “MIC B. mallei CHN7” value in experiment [13] stood at 6 µg/mL (≈ 13.9 µM). The “MIC B. pseudomallei Human/Blood/OH” value in [14] is 30 µg/mL (≈ 69.5 µM). Further, in [15], the “MIC B. melitensis 16M” value came out at 2 µg/mL (≈ 4.63 µM). Further, the PD50 in [16] (setting [20]) was determined as 20 mg/kg; in experiment [16] (oral administration 1 h pre-infection), 50 mg/kg.
